Assay results as given in patent US20060062850A1, “Controlled release antimicrobial polymer compositions” (priority 2004, published 2006).

Legend:
L. monocytogenes 15313 [1] = assay: spot on lawn assay; format: cell-based
Procedure: For each concentration of each antimicrobial agent, a spot on lawn assay was conducted as a positive control experiment to assess the efficacy of the antimicrobial solutions. In this assay, Trypticase Soy Agar (TSA) and Modified Oxford Agar (MOX) agar plates were inoculated with L. monocytogenes 15313 at a level of 10E+08 cfu/ml through an Autoplate 4000 model from Spiral Biotech, Inc., of Norwood, Mass. A volumetric pipette pump was then used to place three 10 μl spots of antimicrobial solution onto three well-separated regions of the test plate. Another volumetric pipette pump was used to place 10 μl of a negative control solution (i.e., neat solvent(s)) onto another well-separated region. Three such agar plates were prepared for each concentration of antimicrobial solution. After spot placement, the agar plates were allowed to stand undisturbed for 10 to 30 minutes in a laminar flow hood before incubation at 37° C. for at least 24 hours.
The zone of inhibition resulting from each spot of antimicrobial solution was measured using a dial caliper (available from Brown and Sharpe of North Kingstown, R.I.; accuracy to 0.02 mm). Each zone of inhibition was measured twice, once on each of two perpendicular axes. The values reported in Tables 2 (TSA plates) and 3 (MOX plates) are the average of 18 measurements.

L. monocytogenes 15313 [2] = assay: film on lawn assay; format: cell-based; details: incubation at 37 C.
Procedure: In a film on lawn assay, films of Example 1 and Example 2 were cut into 15 mm by 15 mm samples, placed onto aluminum foil, and exposed to UV light in a laminar flow hood for 4 to 7 minutes. The samples were then transferred from the foil to one of six freshly made up antimicrobial solutions to imbibe for 12 to 24 hours at a specified temperature (4° C. or 37° C.). The films are expected to substantially reach equilibration in less than 12 hours. The films were removed with a pair of flame-sterilized ocular forceps, allowed to drip dry, and held for 60 seconds on a sterile Petri dish before positioning on TSA and MOX agar plates. The agar plates had been prepared as described above with respect to the spot on lawn assay. Two films were placed on each of the prepared agar plates, in well-separated regions. A third 15 mm×15 mm film was imbibed under the same conditions in a negative control solution and placed in another region of the plate. Three plates were prepared in this manner for each concentration of each antimicrobial agent. In the case of the MOX agar plates, a fourth plate was prepared with the same level of innoculum, with no films in it, to serve as a growth indicator plate for color change. After film placement, the plates were allowed to stand undisturbed for 10 to 30 minutes in a laminar flow hood before incubation for at least 24 hours.
Incubation took place at either 4° C. for 14 to 28 days or 37° C. for two to five days. The incubation conditions are noted in the Tables.
The zone of inhibition resulting from each spot of antimicrobial solution was measured as described above, with respect to the spot on lawn assay. The values reported in Tables 5 and 6 are the average of 12 measurements. Occasionally inhibition could be observed on the MOX agar plates, but not easily measured, owing to the relatively diffuse boundaries between areas of inhibition and non-inhibition. In such cases, a qualitative description of the results is provided.

Structure (SMILES): O=C(O)c1ccccc1 [Benzoic acid]
- Group averages of Inhibition Zones, Spot on Lawn Assay (L. monocytogenes 15313 [1]; MOX Agar Plates, 0.75 wt % in Ethanol/Water (36/63.25)): 7.91 mm
- Group averages of Inhibition Zones, Spot on Lawn Assay (L. monocytogenes 15313 [1]; MOX Agar Plates, 1.5 wt % in Ethanol/Water (36/62.5)): 8.66 mm
- Group averages of Inhibition Zones, Spot on Lawn Assay (L. monocytogenes 15313 [1]; MOX Agar Plates, 3.0 wt % in Ethanol/Water (36/61)): 8.75 mm
- Group averages of Inhibition Zones, Spot on Lawn Assay (L. monocytogenes 15313 [1]; TSA Agar, 0.75 wt % in Ethanol/Water (36/63.25)): 8.13 ± 0.27 mm
- Group averages of Inhibition Zones, Spot on Lawn Assay (L. monocytogenes 15313 [1]; TSA Agar, 1.5 wt % in Ethanol/Water (36/62.5)): 8.32 ± 0.69 mm
- Group averages of Inhibition Zones, Spot on Lawn Assay (L. monocytogenes 15313 [1]; TSA Agar, 3.0 wt % in Ethanol/Water (36/61)): 8.32 ± 0.53 mm
- Group averages of Inhibition Zones, Film on Lawn Assay Example 1 (L. monocytogenes 15313 [2]; MOX Agar Plates, Example 1 film soaked at 37 C. in 0.75 wt % solution, Ethanol/Water (36/63.25)): 0 (no inhibition) mm
- Group averages of Inhibition Zones, Film on Lawn Assay Example 1 (L. monocytogenes 15313 [2]; MOX Agar Plates, Example 1 film soaked at 37 C. in 1.5 wt % solution, Ethanol/Water (36/62.5)): 24.0 ± 3.34 mm
- Group averages of Inhibition Zones, Film on Lawn Assay Example 1 (L. monocytogenes 15313 [2]; MOX Agar Plates, Example 1 film soaked at 37 C. in 3.0 wt % solution, Ethanol/Water (36/61)): 39.52 ± 2.93 mm
- Group averages of Inhibition Zones, Film on Lawn Assay Example 2 (L. monocytogenes 15313 [2]; MOX Agar Plates, Example 2 film soaked at 37 C. in 0.75 wt % solution, Ethanol/Water (36/63.25)): 0 (no inhibition) mm
- Group averages of Inhibition Zones, Film on Lawn Assay Example 2 (L. monocytogenes 15313 [2]; MOX Agar Plates, Example 2 film soaked at 37 C. in 1.5 wt % solution, Ethanol/Water (36/62.5)): 21.38 ± 3.90 mm
- Group averages of Inhibition Zones, Film on Lawn Assay Example 2 (L. monocytogenes 15313 [2]; MOX Agar Plates, Example 2 film soaked at 37 C. in 3.0 wt % solution, Ethanol/Water (36/61)): 32.29 ± 7.53 mm
- Group averages of Inhibition Zones, Film on Lawn Assay Example 1 (L. monocytogenes 15313 [2]; TSA Agar, Example 1 film soaked at 37 C. in 0.75 wt % solution, Ethanol/Water (36/63.25)): 0 (no inhibition) mm
- Group averages of Inhibition Zones, Film on Lawn Assay Example 1 (L. monocytogenes 15313 [2]; TSA Agar, Example 1 film soaked at 37 C. in 1.5 wt % solution, Ethanol/Water (36/62.5)): 17.68 ± 1.64 mm
- Group averages of Inhibition Zones, Film on Lawn Assay Example 1 (L. monocytogenes 15313 [2]; TSA Agar, Example 1 film soaked at 37 C. in 3.0 wt % solution, Ethanol/Water (36/61)): 20.17 ± 1.19 mm
- Group averages of Inhibition Zones, Film on Lawn Assay Example 2 (L. monocytogenes 15313 [2]; TSA Agar, Example 2 film soaked at 37 C. in 0.75 wt % solution, Ethanol/Water (36/63.25)): 0 (no inhibition) mm
- Group averages of Inhibition Zones, Film on Lawn Assay Example 2 (L. monocytogenes 15313 [2]; TSA Agar, Example 2 film soaked at 37 C. in 1.5 wt % solution, Ethanol/Water (36/62.5)): 18.60 ± 0.61 mm
- Group averages of Inhibition Zones, Film on Lawn Assay Example 2 (L. monocytogenes 15313 [2]; TSA Agar, Example 2 film soaked at 37 C. in 3.0 wt % solution, Ethanol/Water (36/61)): 18.90 ± 1.82 mm
